Consider 46 molecules from BindingDB's records for patent US20250313563 (The Broad Institute, 2025).

Assay [1] deals with Glycogen synthase kinase-3 alpha (Homo sapiens, UniProt P49840). Briefly: TR-FRET Assay. The essentials:
(§1)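 Compound was preincubated 30 min in assay buffer before the kinase reaction, which was quenched with EDTA. Phosphorylation was detected by TR-FRET after adding a solution of 40 nM streptavidin-d2 and 2 nM Tb-labelled anti-pSer641 antibody.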
(In general: Time-resolved FRET reads energy transfer from a long-lived donor to a nearby acceptor.)

Assay [2] has as its target Glycogen synthase kinase-3 beta (Homo sapiens, UniProt P49841). The assay is described as follows: TR-FRET Assay. A digest of the protocol: as §1

Several values for one entry are separate records, joined by “and”; a condition that tells them apart may be missing. Equal entries are not always repeated.

Chain of Glycogen synthase kinase-3 alpha (P49840 whole entry): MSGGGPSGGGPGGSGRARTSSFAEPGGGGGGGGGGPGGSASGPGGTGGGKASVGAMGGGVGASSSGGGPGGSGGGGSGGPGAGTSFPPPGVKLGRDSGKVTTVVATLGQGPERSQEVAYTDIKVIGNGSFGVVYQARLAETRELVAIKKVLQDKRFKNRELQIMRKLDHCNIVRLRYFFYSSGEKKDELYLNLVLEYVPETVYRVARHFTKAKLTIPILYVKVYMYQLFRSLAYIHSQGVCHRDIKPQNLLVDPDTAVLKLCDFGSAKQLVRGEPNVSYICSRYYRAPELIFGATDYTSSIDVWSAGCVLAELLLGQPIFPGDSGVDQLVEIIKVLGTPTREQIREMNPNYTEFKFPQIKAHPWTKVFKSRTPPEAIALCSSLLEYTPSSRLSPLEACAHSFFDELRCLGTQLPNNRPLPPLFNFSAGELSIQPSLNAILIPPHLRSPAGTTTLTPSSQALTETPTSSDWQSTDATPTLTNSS
Chain of Glycogen synthase kinase-3 beta (P49841 whole entry): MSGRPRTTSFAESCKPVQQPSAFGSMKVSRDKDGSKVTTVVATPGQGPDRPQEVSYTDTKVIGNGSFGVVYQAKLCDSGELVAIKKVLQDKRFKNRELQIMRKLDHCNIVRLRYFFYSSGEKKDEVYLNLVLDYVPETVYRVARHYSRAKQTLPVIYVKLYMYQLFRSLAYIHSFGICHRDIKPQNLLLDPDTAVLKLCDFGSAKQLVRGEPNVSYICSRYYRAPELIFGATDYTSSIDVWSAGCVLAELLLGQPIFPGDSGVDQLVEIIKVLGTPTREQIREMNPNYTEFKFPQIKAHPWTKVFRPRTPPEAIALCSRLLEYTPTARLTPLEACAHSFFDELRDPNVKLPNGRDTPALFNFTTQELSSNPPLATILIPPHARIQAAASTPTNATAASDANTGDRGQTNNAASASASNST

As a reminder, the IC50 is the concentration needed to halve the response being measured. Turning to `Cn1cc(S(=O)(=O)N2CCC3(CC2)C2=C(N=NC2)NC2=C3C(=O)CC(C)(C)C2)nn1` [US20250313563, Compound 947898], the IC50 in assay [1] is less than 0.1 µM; in assay [2] it was 0.1 to 1 µM.

In the case of `CC[C@]1(c2cccc(N(C)c3ncccn3)c2)C2=C(CC(C)(C)NC2=O)NC2N=NC(C(F)F)=C21` (some centres not stated) [US20250313563, Compound 951736], the IC50 was less than 0.1 µM in assay [1] and 0.1 to 1 µM in assay [2].

Regarding `CCC1(c2cccc(-c3ccnc(C(F)(F)F)c3)c2)C2=CN=NC2NC2=C1C(=O)CC(C)(C)C2` (configuration not stated) [US20250313563, Compound 913350], the IC50 in assay [1] is 0.1 to 1 µM and < 0.1 µM; in assay [2] it was < 0.1 µM and 0.1 to 1 µM.

With `CCc1cccc(N(C)c2cccc([C@]3(CC)C4=CN=NC4NC4=C3C(=O)CC(C)(C)C4)c2)n1` (some centres not stated) [US20250313563, Compound 945730], the IC50 was less than 0.1 µM in assay [1] and 0.1 to 1 µM in assay [2].

As for `Cn1cc(-c2cccc([C@@]3(C)C4=C(CC(C)(C)CC4=O)NC4=C3C(CC(C)(C)C)N=N4)c2)cn1` (some centres not stated) [US20250313563, Compound 126367], the IC50 in assay [1] and in assay [2] was more than 5 µM throughout.

As for `CCC1(c2cccc(-c3cncn3C)c2)C2=CN=NC2NC2=C1C(=O)CC(C)(C)C2` (configuration not stated) [US20250313563, Compound 943533], the IC50 in assay [1] and in assay [2] was less than 0.1 µM in each case.

Consider `CC[C@]1(c2cccc(-c3ccncc3OC3CC3)c2)C2=CN=NC2NC2=C1C(=O)NC(C)(C)C2` (some centres not stated) [US20250313563, Compound 948643], for which the IC50 in assay [1] and in assay [2] was more than 5 µM in each case.

Take `CC1(C)CC(=O)C2=C(C1)NC1N=NC=C1[C@]21CCCc2c(-c3ccncc3)cccc21` (some centres not stated) [US20250313563, Compound 945548]: the IC50 in assay [1] and in assay [2] was less than 0.1 µM throughout.

For the molecule `CN1CCC2(C1)C1=C(N=NC1)NC1=C2C(=O)CC(C)(C)C1` (configuration not stated) [US20250313563, Compound 841867], the IC50 in assay [1] and in assay [2] was more than 5 µM each time.

On to `CC[C@]1(c2cccc(-c3cncn3C)c2)C2=C(CC(C)(C)NC2=O)NC2N=NC(C(F)(F)F)=C21` (some centres not stated) [US20250313563, Compound 949003], for which the IC50 in assay [1] and in assay [2] was 0.1 to 1 µM each time.

For the molecule `CC1(C)CC(=O)C2=C(C1)NC1=C(CN=N1)C21CCN(S(=O)(=O)c2cccc3c2CCCC3)CC1` [US20250313563, Compound 947470], the IC50 in assay [1] and in assay [2] was less than 0.1 µM each time.

As to `CC1(C)CC(=O)C2=C(C1)NC1=C(CN=N1)C21CCC1` [US20250313563, Compound 874509], the IC50 in assay [1] and in assay [2] was 0.1 to 1 µM in each case.

With `CC[C@@]1(c2cccc(-c3ccncc3C)c2)C2=CN=NC2NC2=C1C(=O)NC1(CCC1)C2` (some centres not stated) [US20250313563, Compound 948512], the IC50 in assay [1] was < 0.1 µM and 0.1 to 1 µM; in assay [2], < 0.1 µM and 1 to 5 µM.

As for `CC[C@@]1(c2cccc(N3CCCCC3)c2)C2=C(CC(C)(C)CC2=O)NC2N=NC(C)=C21` (some centres not stated) [US20250313563, Compound 884116], the IC50 in assay [1] is < 0.1 µM and 0.1 to 1 µM; in assay [2] it was < 0.1 µM and 0.1 to 1 µM.

Turning to `CC[C@]1(c2cccc(-c3c(C)nn(C)c3C)c2)C2=CN=NC2NC2=C1C(=O)CC(C)(C)C2` (some centres not stated) [US20250313563, Compound 911990], the half-maximal inhibitory concentration (IC50) was less than 0.1 µM in assay [1]; < 0.1 µM and 0.1 to 1 µM in assay [2].

Turning to `CC[C@@]1(c2ccccc2)C2=CN=NC2NC2=C1C(=O)C[C@]1(CCNC1=O)C2` (some centres not stated) [US20250313563, Compound 950160], the results for the half-inhibitory concentration (IC50) in assay [1] and in assay [2] were 1 to 5 µM and more than 5 µM, respectively.

As to `Cc1cc(-c2cccc3c2CCC[C@@]32C3=CN=NC3NC3=C2C(=O)CC(C)(C)C3)ccn1` (some centres not stated) [US20250313563, Compound 945549], the IC50 in assay [1] and in assay [2] was less than 0.1 µM in each case.

Turning to `CCC1(c2cccc(-c3ccnc4ccccc34)c2)C2=CN=NC2NC2=C1C(=O)CC(C)(C)C2` (configuration not stated) [US20250313563, Compound 932631], the IC50 in assay [1] and in assay [2] was less than 0.1 µM each time.

Turning to `CC[C@]1(c2cccc(-c3ccnc(C)c3)c2)C2=CN=NC2NC2=C1C(=O)N[C@]1(CCCOC1)C2` (some centres not stated) [US20250313563, Compound 948146], the results for the IC50 in assay [1] and in assay [2] were 1 to 5 µM and more than 5 µM, respectively.

As for `CC1(C)CC(=O)C2=C(C1)NC1=C(CN=N1)C21CCN(S(=O)(=O)c2cnn(CC(F)(F)F)c2)CC1` [US20250313563, Compound 948123], the IC50 in assay [1] is < 0.1 µM and 0.1 to 1 µM; in assay [2] it was < 0.1 µM and 0.1 to 1 µM.

As to `CC[C@]1(c2cccc(-c3cc(C)nnc3C)c2)C2=C(CC(C)(C)NC2=O)NC2N=NC(C(F)(F)F)=C21` (some centres not stated) [US20250313563, Compound 949917], the IC50 in assay [1] and in assay [2] was less than 0.1 µM each time.

For the molecule `CCC1(c2cccc(S(=O)(=O)CC3CC3)c2)C2=C(CC(C)(C)NC2=O)NC2N=NC(C)=C21` (configuration not stated) [US20250313563, Compound 948178], the IC50 in assay [1] and in assay [2] was less than 0.1 µM in each case.

`CCOc1cccc(S(=O)(=O)N2CCC3(CC2)C2=C(N=NC2)NC2=C3C(=O)CC(C)(C)C2)c1` [US20250313563, Compound 947253]: the IC50 is < 0.1 µM and 0.1 to 1 µM in assay [1]; < 0.1 µM and 1 to 5 µM in assay [2].

For `CCC1(c2cccc(-c3ccnc(C)c3)c2)C2=CN=NC2NC2=C1C(=O)NC(C)C2` (configuration not stated) [US20250313563, Compound 913357], the 50% inhibitory concentration (IC50) fell in the range of 0.1 to 1 µM in assay [1] and 1 to 5 µM in assay [2].

On to `CCC1(c2cccc(-c3ccnc(C)c3)c2)C2=C(CC(C)(C)NC2=O)NC2N=NC(C)=C21` (configuration not stated) [US20250313563, Compound 947798], for which the IC50 in assay [1] is less than 0.1 µM; in assay [2] it was 0.1 to 1 µM.

In the case of `CC1(C)CC(=O)C2=C(C1)NC1=C(CN=N1)C21CN(C(=O)c2ccccc2)C1` [US20250313563, Compound 893315], the IC50 in assay [1] and in assay [2] was more than 5 µM throughout.

As to `CC[C@@]1(c2cccc([C@@H]3CCOC(C)(C)C3)c2)C2=CN=NC2NC2=C1C(=O)CC(C)(C)C2` (some centres not stated) [US20250313563, Compound 912091], the IC50 in assay [1] and in assay [2] was more than 5 µM throughout.

Take `CC[C@@]1(c2cccc(C(F)(F)F)c2)C2=C(CC(C)(C)CC2=O)NC2N=NC(Br)=C21` (some centres not stated) [US20250313563, Compound 810464]: the 50% inhibitory concentration (IC50) in assay [1] and in assay [2] was 1 to 5 µM each time.

Turning to `CC[C@]1(c2cccc(OC)c2)C2=C(CC(C)(C)CC2=O)NC2N=NC(C(=O)OC)=C21` (some centres not stated) [US20250313563, Compound 901479], the IC50 in assay [1] and in assay [2] was less than 0.1 µM each time.

`CC[C@]1(c2ccccc2)C2=C(CC(C)(C)CC2=O)NC2N=NC(C(F)F)=C21` (some centres not stated) [US20250313563, Compound 874511]: the figures for the IC50 in assay [1] and in assay [2] were less than 0.1 µM and 0.1 to 1 µM, respectively.

In the case of `CCC1(c2cccc(N3CCCCC3)c2)C2=CN=NC2NC2=C1C(=O)NC(C)(C)C2` (configuration not stated) [US20250313563, Compound 947566], the IC50 in assay [1] and in assay [2] was 1 to 5 µM throughout.

Take `CCn1nc(C)cc1S(=O)(=O)N1CCC2(CC1)C1=CN=NC1NC1=C2C(=O)CC(C)(C)C1` (configuration not stated) [US20250313563, Compound 947609]: the values for the half-maximal inhibitory concentration (IC50) in assay [1] and in assay [2] were less than 0.1 µM and 0.1 to 1 µM, respectively.

As to `CCC1(c2cccc(N(C)C(=O)CCc3ccccc3)c2)C2=CN=NC2NC2=C1C(=O)CC(C)(C)C2` (configuration not stated) [US20250313563, Compound 912066], the IC50 in assay [1] is less than 0.1 µM; in assay [2] it was 0.1 to 1 µM.

Take `CC[C@]1(c2cccc(C(F)(F)F)c2)C2=CN=NC2NC2=C1C(=O)N(c1cncnc1)CC2` (some centres not stated) [US20250313563, Compound 948379]: the IC50 in assay [1] and in assay [2] was 0.1 to 1 µM in each case.

With `CC[C@@]1(c2ccccc2)C2=C(CC(C)(C)CC2=O)NC2N=NC(C(F)F)=C21` (some centres not stated) [US20250313563, Compound 874510], the IC50 in assay [1] and in assay [2] was 0.1 to 1 µM each time.

Turning to `CC[C@@]1(c2cccc(-c3ccnn3C(C)C)c2)C2=CN=NC2NC2=C1C(=O)CC(C)(C)C2` (some centres not stated) [US20250313563, Compound 946091], the IC50 in assay [1] and in assay [2] was less than 0.1 µM throughout.

As to `CCC1(c2cccc(N3C[C@H](C)C[C@H](C)C3)c2)C2=CN=NC2NC2=C1C(=O)CC(C)(C)C2` (some centres not stated) [US20250313563, Compound 885237], the IC50 in assay [1] lay within 0.1 to 1 µM; in assay [2], 1 to 5 µM.

As for `CCC1(c2cccc(Oc3ncccn3)c2)C2=C(CC(C)(C)NC2=O)NC2N=NC(F)=C21` (configuration not stated) [US20250313563, Compound 950615], the IC50 was less than 0.1 µM in assay [1] and 0.1 to 1 µM in assay [2].

With `CCC1(c2cccc(S(C)(=O)=O)c2)C2=C(CC(C)(C)NC2=O)NC2N=NC(C)=C21` (configuration not stated) [US20250313563, Compound 947395B:], the IC50 in assay [1] and in assay [2] was less than 0.1 µM each time.

On to `CC[C@@]1(c2cccc(N(C)c3ncccn3)c2)C2=C(CC(C)(C)NC2=O)NC2N=NC(C(F)F)=C21` (some centres not stated) [US20250313563, Compound 951740], for which the IC50 was less than 0.1 µM in assay [1]; < 0.1 µM and 0.1 to 1 µM in assay [2].

Regarding `CC1(C)CC(=O)C2=C(C1)NC1=C(CN=N1)C21CCN(S(=O)(=O)c2cccc(Cl)c2Cl)CC1` [US20250313563, Compound 947249], the IC50 in assay [1] and in assay [2] was less than 0.1 µM each time.

Turning to `CC[C@]1(c2cccc(N(C)c3ncccn3)c2)C2=C(N=NC2)NC2=C1C(=O)C(C)(C)C2` [US20250313563, Compound 952212], the IC50 in assay [1] is < 0.1 µM and 0.1 to 1 µM; in assay [2] it was 0.1 to 1 µM and > 5 µM.

For the molecule `CC[C@]1(c2cccc(-c3ccnc(C)c3)c2)C2=CN=NC2NC2=C1C(=O)[C@H](F)C(C)(C)C2` (some centres not stated) [US20250313563, Compound 945485], the IC50 in assay [1] and in assay [2] was more than 5 µM throughout.

Take `CC[C@@]1(c2cccc(-c3cnnc(C)c3)c2)C2=CN=NC2NC2=C1C(=O)CC(C)(C)C2` (some centres not stated) [US20250313563, Compound 943994]: the values for the concentration for half-maximal inhibition (IC50) in assay [1] and in assay [2] were 0.1 to 1 µM and 1 to 5 µM, respectively.

`C[C@@H]1CC[C@]2(C1)C1=C(N=NC1)NC1=C2C(=O)CC(C)(C)C1` [US20250313563, Compound 883841]: the IC50 in assay [1] and in assay [2] was 0.1 to 1 µM in each case.

Turning to `CC[C@@]1(c2cccc(C(F)(F)F)c2)C2=C(N=NC2)NC2=C1C(=O)N[C@@H]2C` [US20250313563, Compound 945380], the IC50 in assay [1] and in assay [2] was more than 5 µM in each case.
